Laboratory results reported in paper PMC6152673, “Discovery of Indeno[1,2-c]quinoline Derivatives as Potent Dual Antituberculosis and Anti-Inflammatory Agents” (Molecules : A Journal of Synthetic Chemistry and Natural …, 2017).
Converted amounts (≈) assume the structure as drawn.

Key:
[1] = system: M. tuberculosis H37Rv (ATCC 27294); test: Anti-Mycobacterium activity, broth microdilution Microplate Alamar Blue Assay (MABA); type: cell-based; conditions: MIC = lowest concentration effecting 90% reduction in fluorescence
[2] = system: fMLF-activated human neutrophils (superoxide anion generation); test: Superoxide anion generation in fMLF-activated human neutrophils; type: cell-based; conditions: for IC50: Neutrophil, fMLF/cytochalasin B-activated human neutrophils, mean ± SEM (n = 3); for Inhibitory effect on superoxide anion generation (in words): fMLF-activated human neutrophils
Method: (§1) Superoxide generation and elastase release were carried out according to the procedures described previously. Neutrophils (6 × 10^5/mL) were equilibrated at 37 °C for 2 min and incubated with compounds for 5 min. Neutrophils were then activated by fMLF (100 nM) in the pretreatment of cytochalasin B (1 µg/mL for superoxide generation and 0.5 µg/mL for elastase release) for 10 min. Superoxide anion production was assayed by monitoring the superoxide dismutase-inhibitable reduction of ferricytochrome C. Elastase release was performed using MeO-Suc-Ala-Ala-Pro-Valp-nitroanilide as the elastase substrate.

[3] = system: fMLF-activated human neutrophils (neutrophil elastase release); test: Neutrophil elastase release in fMLF-activated human neutrophils; type: cell-based; conditions: for IC50: Neutrophil, fMLF/cytochalasin B-activated human neutrophils, mean ± SEM (n = 3); for Inhibitory effect on NE release (in words): fMLF-activated human neutrophils
Method: as §1

Vero cells = test: Vero cell viability (MTT, Promega Cell Titer 96)

O=C1c2ccccc2-c2c(N3CCCC3)nc3ccccc3c21 [Compound 3a, 6-(Pyrrolidin-1-yl)-11H-indeno[1,2-c]quinolin-11-one]
MIC [1]: 4.56 µg/mL (≈ 15.2 µM)
IC50 [2]: > 10000 nM
IC50 [3]: > 10000 nM
melting point: 163 to 164 °C
Survival Rate of Vero Cells @ 20 μg/mL (Vero cells): 88.61%

O=C1c2ccccc2-c2c(N3CCCC(CO)C3)nc3ccccc3c21 (centres unmarked) [Compound 3g, 6-(3-Piperidinemethano-1-yl)-11H-indeno[1,2-c]quinolin-11-one]
MIC [1]: 3.07 µg/mL (≈ 8.91 µM)
IC50 [2]: 2770 ± 470 nM
IC50 [3]: 2120 ± 1190 nM
melting point: 220 to 221 °C
Survival Rate of Vero Cells @ 20 μg/mL (Vero cells): 92.25%

O=C1c2ccccc2-c2c(N3CCCC(O)C3)nc3ccccc3c21 (centres unmarked) [Compound 3e, 6-(3-Hydroxypiperidin-1-yl)-11H-indeno[1,2-c]quinolin-11-one]
MIC [1]: 4.97 µg/mL (≈ 15 µM)
IC50 [2]: 2900 ± 110 nM
IC50 [3]: 2800 ± 90 nM
melting point: 211 to 212 °C
Survival Rate of Vero Cells @ 20 μg/mL (Vero cells): 87.78%

NC(=S)N/N=C1\c2ccccc2-c2c(N3CCC(O)CC3)nc3ccccc3c21 [Compound 10, (E)-2-[6-(4-Hydroxypiperidin-1-yl)-11H-indeno[1,2-c]quinolin-11-ylidene]hydrazine Carbothioamide]
MIC [1]: > 20 µg/mL
IC50 [2]: 2410 ± 360 nM
IC50 [3]: > 10000 nM
melting point: 304 to 305 °C
Survival Rate of Vero Cells @ 20 μg/mL (Vero cells): 80.28%

O=C(N/N=C1\c2ccccc2-c2c(N3CCC(O)CC3)nc3ccccc3c21)c1ccccc1 [Compound 11, (E)-N′-[6-(4-Hydroxypiperidin-1-yl)-11H-indeno[1,2-c]quinolin-11-ylidene]benzohydrazide]
MIC [1]: 1.98 µg/mL (≈ 4.41 µM)
IC50 [2]: 1670 ± 870 nM
IC50 [3]: > 10000 nM
Inhibitory effect on NE release (in words) [3]: inactive
melting point: 258 to 259 °C
Survival Rate of Vero Cells @ 20 μg/mL (Vero cells): 89.55%

COc1ccc2c(c1)C(=O)c1c-2c(N2CCCC(O)C2)nc2ccccc12 (centres unmarked) [Compound 4e, 6-(3-Hydroxypiperidin-1-yl)-9-methoxy-11H-indeno[1,2-c]quinolin-11-one]
MIC [1]: 19.1 µg/mL (≈ 53 µM)
IC50 [2]: 1890 ± 650 nM
IC50 [3]: 2930 ± 700 nM
melting point: 191 to 192 °C
Survival Rate of Vero Cells @ 20 μg/mL (Vero cells): 87.59%

NC(=O)N/N=C1\c2ccccc2-c2c(N3CCC(O)CC3)nc3ccccc3c21 [Compound 9, (E)-2-[6-(4-Hydroxypiperidin-1-yl)-11H-indeno[1,2-c]quinolin-11-ylidene]hydrazine Carboxamide]
MIC [1]: > 20 µg/mL
IC50 [2]: 3640 ± 1430 nM
IC50 [3]: > 10000 nM
melting point: 289 to 290 °C
Survival Rate of Vero Cells @ 20 μg/mL (Vero cells): 81.20%

COc1ccc2c(c1)C(=O)c1c-2c(N2CCCCC2)nc2ccccc12 [Compound 4b]
MIC [1]: > 20 µg/mL
IC50 [2]: > 10000 nM
IC50 [3]: > 10000 nM
Survival Rate of Vero Cells @ 20 μg/mL (Vero cells): 99.55%

COc1ccc2c(c1)C(=O)c1c-2c(N2CCCC(CO)C2)nc2ccccc12 (centres unmarked) [Compound 4g, 6-[3-(Hydroxymethyl)piperidin-1-yl]-9-methoxy-11H-indeno[1,2-c]quinolin-11-one]
MIC [1]: > 20 µg/mL
IC50 [2]: 680 ± 140 nM
IC50 [3]: 460 ± 80 nM
melting point: 243 to 244 °C
Survival Rate of Vero Cells @ 20 μg/mL (Vero cells): 87.60%

COc1ccc2c(c1)C(=O)c1c-2c(N2CCOCC2)nc2ccccc12 [Compound 4c]
MIC [1]: > 20 µg/mL
IC50 [2]: > 10000 nM
IC50 [3]: > 10000 nM
Survival Rate of Vero Cells @ 20 μg/mL (Vero cells): 94.47%

O=C1c2ccccc2-c2c(N3CCOCC3)nc3ccccc3c21 [Compound 3c, 6-(Morpholino-1-yl)-11H-indeno[1,2-c]quinolin-11-one]
MIC [1]: 3.12 µg/mL (≈ 9.86 µM)
IC50 [2]: > 10000 nM
IC50 [3]: > 10000 nM
melting point: 171 to 173 °C
Survival Rate of Vero Cells @ 20 μg/mL (Vero cells): 91.19%

O=C(N/N=C1\c2ccccc2-c2c(N3CCC(O)CC3)nc3ccccc3c21)c1ccncc1 [Compound 12, (E)-N′-[6-(4-Hydroxypiperidin-1-yl)-11H-indeno[1,2-c]quinolin-11-ylidene]isonicotino Hydrazide]
MIC [1]: 0.96 µg/mL (≈ 2.14 µM)
IC50 [2]: 1720 ± 230 nM
IC50 [3]: 1760 ± 490 nM
melting point: 282 to 283 °C
Survival Rate of Vero Cells @ 20 μg/mL (Vero cells): 94.25%

CO/N=C1\c2ccccc2-c2c(N3CCC(O)CC3)nc3ccccc3c21 [Compound 8, (E)-6-(4-Hydroxypiperidin-1-yl)-11H-indeno[1,2-c]quinolin-11-one O-methyl Oxime]
MIC [1]: > 20 µg/mL
IC50 [2]: 2680 ± 950 nM
Inhibitory effect on superoxide anion generation (in words) [2]: comparable anti-inflammatory activity
IC50 [3]: 2130 ± 920 nM
Inhibitory effect on NE release (in words) [3]: comparable anti-inflammatory activity
melting point: 183 to 184 °C
Survival Rate of Vero Cells @ 20 μg/mL (Vero cells): 91.48%

O/N=C1\c2ccccc2-c2c(N3CCC(O)CC3)nc3ccccc3c21 [Compound 7, (E)-6-(4-Hydroxypiperidin-1-yl)-11H-indeno[1,2-c]quinolin-11-one Oxime]
MIC [1]: > 20 µg/mL
IC50 [2]: 830 ± 470 nM
Inhibitory effect on superoxide anion generation (in words) [2]: comparable anti-inflammatory activity
IC50 [3]: 1390 ± 640 nM
Inhibitory effect on NE release (in words) [3]: comparable anti-inflammatory activity
melting point: 155 to 156 °C
Survival Rate of Vero Cells @ 20 μg/mL (Vero cells): 84.14%

NNC(=O)c1ccncc1 [INH, isoniazid, reference compound]
MIC [1]: 0.8 to 1.2 µg/mL (≈ 5.83 to 8.75 µM)
Survival Rate of Vero Cells @ 20 μg/mL (Vero cells): 84.80%

COc1ccc2c(c1)C(=O)c1c-2c(N2CCC(CO)CC2)nc2ccccc12 [Compound 4f, 6-[4-(Hydroxymethyl)piperidin-1-yl]-9-methoxy-11H-indeno[1,2-c]quinolin-11-one]
MIC [1]: > 20 µg/mL
IC50 [2]: 1930 ± 920 nM
IC50 [3]: 880 ± 300 nM
melting point: 218 to 219 °C
Survival Rate of Vero Cells @ 20 μg/mL (Vero cells): 90.26%

O=C1c2ccccc2-c2c(N3CCC(O)CC3)nc3ccccc3c21 [Compound 3d, 6-(4-Hydroxypiperidin-1-yl)-11H-indeno[1,2-c]quinolin-11-one]
MIC [1]: 2.09 µg/mL (≈ 6.33 µM)
IC50 [2]: 1780 ± 440 nM
IC50 [3]: 2200 ± 690 nM
melting point: 208 °C
Survival Rate of Vero Cells @ 20 μg/mL (Vero cells): 91.23%

O=C1c2ccccc2-c2c(N3CCCCC3)nc3ccccc3c21 [Compound 3b, 6-(Piperidin-1-yl)-11H-indeno[1,2-c]quinolin-11-one]
MIC [1]: 4.93 µg/mL (≈ 15.7 µM)
IC50 [2]: > 10000 nM
IC50 [3]: > 10000 nM
melting point: 165 to 166 °C
Survival Rate of Vero Cells @ 20 μg/mL (Vero cells): 96.18%

COc1ccc2c(c1)C(=O)c1c-2c(N2CCC(O)CC2)nc2ccccc12 [Compound 4d, 6-(4-Hydroxypiperidin-1-yl)-9-methoxy-11H-indeno[1,2-c]quinolin-11-one]
MIC [1]: 7.74 µg/mL (≈ 21.5 µM)
IC50 [2]: 2820 ± 300 nM
IC50 [3]: 2050 ± 240 nM
Survival Rate of Vero Cells @ 20 μg/mL (Vero cells): 84.72%

OC1CCN(c2nc3ccccc3c3c2-c2ccccc2C3)CC1 [Compound 5, 1-(11H-Indeno[1,2-c]quinolin-6-yl)piperidin-4-ol]
MIC [1]: 18 µg/mL (≈ 56.9 µM)
IC50 [2]: 4020 ± 1080 nM
Inhibitory effect on superoxide anion generation (in words) [2]: weakly active
IC50 [3]: 5290 ± 480 nM
Inhibitory effect on NE release (in words) [3]: weakly active
Survival Rate of Vero Cells @ 20 μg/mL (Vero cells): 85.41%

COc1ccc2c(c1)C(=O)c1c-2c(N2CCCC2)nc2ccccc12 [Compound 4a, 9-Methoxy-6-(pyrrolidin-1-yl)-11H-indeno[1,2-c]quinolin-11-one]
MIC [1]: 17 µg/mL (≈ 51.5 µM)
IC50 [2]: > 10000 nM
IC50 [3]: > 10000 nM
Survival Rate of Vero Cells @ 20 μg/mL (Vero cells): 89.62%

O=C1c2ccccc2-c2c(N3CCC(CO)CC3)nc3ccccc3c21 [Compound 3f, 6-(4-Piperidinemethano-1-yl)-11H-indeno[1,2-c]quinolin-11-one]
MIC [1]: 3.98 µg/mL (≈ 11.6 µM)
IC50 [2]: 3370 ± 170 nM
IC50 [3]: 4500 ± 1320 nM
melting point: 223 to 224 °C
Survival Rate of Vero Cells @ 20 μg/mL (Vero cells): 91.11%

CC1(O)c2ccccc2-c2c(N3CCC(O)CC3)nc3ccccc3c21 (centres unmarked) [Compound 6, 6-(4-Hydroxypiperidin-1-yl)-11-methyl-11H-indeno[1,2-c]quinolin-11-ol]
MIC [1]: > 20 µg/mL
IC50 [2]: > 10000 nM
Inhibitory effect on superoxide anion generation (in words) [2]: inactive
IC50 [3]: > 10000 nM
Inhibitory effect on NE release (in words) [3]: inactive
melting point: 146 to 147 °C
Survival Rate of Vero Cells @ 20 μg/mL (Vero cells): 89.83%
